One data set concerns HSV-2. Briefly: Antiviral activity against HSV-2 (CPE inhibition / neutral red). Type of data set: cell-based, herpes simplex virus type 2.
A further data set has as its system HIVROJO. Briefly: Anti-HIV activity against HIVROJO in PBMCs. The format is cell-based. The settings on record: HIVROJO, PBMCs.
For data set [1], the system named is uninfected cells.
In the next data set the test system is PBMCs. Description: Cytotoxicity in PBMCs (anti-HIV tests). The format is cell-based.
The subject of the next data set is Rhinovirus (RV). Description: Antiviral activity against Rhinovirus (CPE inhibition / neutral red). As to conditions: Rhinovirus. The format is cell-based.
Data set [2] relates to uninfected cells. The source holds these as a separate data set.
Data set [3] relates to uninfected cells. Description: Cytotoxicity run with the Adenovirus test. The settings on record: cytotoxicity, Adenovirus test.
A further data set deals with Parainfluenza. Briefly: Antiviral activity against Parainfluenza (CPE inhibition / neutral red). The format is cell-based.
Data set [4] deals with uninfected cells. The source holds these as a separate data set.
The subject of a further data set is HSV-1. Description: Antiviral activity against HSV-1 (CPE inhibition / neutral red). Type of data set: cell-based, herpes simplex virus type 1.
The test system of data set [5] is uninfected cells. Briefly: Cytotoxicity run with the Influenza B test. The format is cell-based. The method, then: (§1) Methods For Assay Of Cytotoxicity
(§2) In the CPE inhibition test, two wells of uninfected cells treated with each concentration of test Compound are run in parallel with the infected, treated wells. At the time CPE is determined microscopically, the toxicity control cells are also examined microscopically for any changes in cell appearance compared to normal control cells run in the same plate. These changes may be enlargement, granularity, cells with ragged edges, a filmy appearance, rounding, detachment from the surface of the well, or other changes. These changes are given a designation of T (100% toxic), PVH (partially toxic-very heavy-80%), PH (partially toxic-heavy-60%), P (partially toxic-40%), PS (partially toxic-slight-20%), or 0 (no toxicity-0%), conforming to the degree of cytotoxicity seen.
(§3) In the neutral red dye uptake phase of the antiviral test described above, the two toxicity control wells also receive neutral red and the degree of color intensity is determined spectrophotometrically. A neutral red CC50 (NRCC50) is subsequently determined.
(§4) C. ^3H Thymidine Uptake Assay
(§5) Flat bottom 96 well plates are plated with 5X10E3 Vero-34 cells/well and 1X10E4 Hs68 or Wi-38 cells/well respectively and incubated overnight at 37° C. and 5% CO2/air. After incubation, the supernatant medium is removed and replaced with test Compound dilutions in 2% DMEM (150 ul). The cells are then incubated 48 hours in a 5% CO2 incubator at 37° C.
(§6) 50 μl/well of 10 uCi/ml solution of [3H]-methyl thymidine (specific activity of approx. 2Ci/mmol) is added to the culture medium and incubated overnight (18 hours) in a 5% CO2 incubator at 37° C.
(§7) Cells are then collected onto a fiberglass filter (Printed Filtermat A 1450-421 Wallac) with a Tomtec cell harvester. Suspended cells are collected directly onto filter while for adherent cells, the medium is first removed, then the cells washed with PBS and trypsinized for 2-3 minutes (50 μl trypsin/well) before collecting.
(§8) Filters are dried for 1 hour at 37-40° C. and then placed into bags (1450-microbeta #1450-432 Wallac) with 4.5 ml of Betascint and counts obtained with Microbeta 1450 Wallac (protocol 1).
(§9) The percent of cell proliferation is determined by comparison to the control (no test Compound) and thereby establishing 50% inhibitory concentration is established.

Data set [6] relates to uninfected cells. Briefly: Cytotoxicity run with the Parainfluenza test. As to conditions: cytotoxicity, Parainfluenza test.
The next data set concerns Adenovirus. Briefly: Antiviral activity against Adenovirus (CPE inhibition / neutral red). Type of data set: cell-based.
Data set [7] relates to uninfected cells. This is another data set of the same source.
For data set [8], the system named is Respiratory Syncitial Virus (RSV). Description: Antiviral activity against RSV (CPE inhibition / neutral red). The format is cell-based.
The test system of the next data set is Influenza B. Briefly: microbe, parasite or virus in culture. Type of data set: cell-based.
A further data set has as its system Influenza A. Briefly: microbe, parasite or virus in culture. Type of data set: cell-based.
Data set [9] concerns uninfected cells. Briefly: Cytotoxicity run with the Influenza A test. Type of data set: cell-based. The method, then: as §1, §2, §3, §4, §5, §6, §7, §8, §9
Data set [10] is described as follows: Cytotoxicity in PBMCs (anti-HIV tests). Type of data set: cell-based. The settings on record: human; PBMCs, HIVROJO.
Data set [11] is described as follows: Cytotoxicity run with the Adenovirus test.
Data set [12] can be described thus: Cytotoxicity run with the HSV-1 test.
Data set [13] can be described thus: Cytotoxicity run with the Rhinovirus test.
Data set [14] in a line: Cytotoxicity run with the RSV test.
In a further data set the test system is HIVTEKI. Description: Anti-HIV activity against HIVTEKI in PBMCs. The settings on record: Human immunodeficiency virus 1, PBMC, read-out: HIVTEKI (PBMCs) IC50.
The nature of data set [15]: Cytotoxicity run with the Influenza B test. The format is cell-based. The method, then: as §1, §2, §3, §4, §5, §6, §7, §8, §9
Data set [16] can be described thus: Cytotoxicity run with the Parainfluenza test.
Data set [17] in a line: Cytotoxicity run with the HSV-2 test.
The nature of data set [18]: Cytotoxicity run with the Influenza A test. Type of data set: cell-based. The procedure: as §1, §2, §3, §4, §5, §6, §7, §8, §9

Values after ≈ are worked out from the molar mass of the structure shown.

Turning to `O=C(NCCc1c[nH]c2ccccc12)C1=Cc2ccncc2CC1` [#68], in the data set on HSV-2 (HSV-2), the “HSV-2 IC50” value came to 0.96 µg/mL. In addition, the “HIVROJO (PBMCs) IC50” value in the data set with HIVROJO came to 2.9 µg/mL. Moreover, the “RSV CC50” value in the data set on uninfected cells [1] stood at 20 µg/mL. The “HIVROJO (PBMCs) CC50” value in the data set with PBMCs is 7.1 µg/mL. The RV IC50 in the data set with Rhinovirus (RV) was found to be 2 µg/mL. For the same molecule, the “HSV-1 CC50” value in the data set with uninfected cells [2] is 12 µg/mL. Besides, the ADENOVIRUS CC50 in the data set with uninfected cells [3] is 30 µg/mL. In the data set on Parainfluenza (Parainfluenza), this molecule gave a PARAINFLUENZA IC50 of 50 µg/mL. The molecule also showed an RV CC50 in the data set with uninfected cells [4] of 10 µg/mL. Besides, the “HSV-1 IC50” value in the data set with HSV-1 (HSV-1) was 0.72 µg/mL. This molecule also yielded an INFLUENZA B CC50 in the data set with uninfected cells [5] of 11 µg/mL. For the same molecule, in the data set on uninfected cells [6], the PARAINFLUENZA CC50 came to 25 µg/mL. The same molecule yielded an ADENOVIRUS IC50 in the data set with Adenovirus (Adenovirus) of 20 µg/mL. The “HSV-2 CC50” value in the data set with uninfected cells [7] came out at 14 µg/mL. For the same molecule, the “RSV IC50” value in [8] (RSV) turned out to be 60 µg/mL. Also, the INFLUENZA B IC50 in the data set on Influenza B (Influenza B) was 7.2 µg/mL. In addition, in the data set with Influenza A, the “INFLUENZA A IC50” value was determined as 2.1 µg/mL. For the same molecule, the “INFLUENZA A CC50” value in the data set on uninfected cells [9] is 2.1 µg/mL.
Take `O=C(NCCc1ccccc1)C1=Cc2ccncc2CC1` [#67, 7,8-Dihydro-isoquinoline-6-carboxylic acid phenethyl-amide]: the IC50 – broadly, the concentration that gives 50% inhibition – is 86 µg/mL (≈ 309 µM) with HSV-2 (Human alphaherpesvirus 2); 8.6 µg/mL (≈ 30.9 µM) in the data set on HIVROJO (Human immunodeficiency virus 1, PBMC, read-out: HIVROJO (PBMCs) IC50); over 20 µg/mL in the data set with Rhinovirus (RV) (Enterovirus, read-out: RV IC50); 100 µg/mL (≈ 359 µM) in the data set on Parainfluenza; 16 µg/mL (≈ 57.5 µM) in the data set on HSV-1 (Human alphaherpesvirus 1, read-out: HSV-1 IC50); 41.2 µg/mL (≈ 148 µM) in the data set on HIVTEKI. The IC50 is over 100 µg/mL with Adenovirus (unidentified adenovirus, read-out: ADENOVIRUS IC50); over 100 µg/mL in data set [8] (human respiratory syncytial virus, read-out: RSV IC50); over 100 µg/mL in the data set on Influenza B (Influenza B virus); over 100 µg/mL in the data set with Influenza A (Influenza A virus, read-out: INFLUENZA A IC50). Also, the CC50 (commonly the concentration that lowers cell viability or growth by half) in [10] is 74.7 µg/mL (≈ 268 µM); in [11], 30 µg/mL (≈ 108 µM); in data set [12], over 100 µg/mL; in data set [13], 40 µg/mL (≈ 144 µM); in data set [14] it was 30 µg/mL (≈ 108 µM); in [15], over 100 µg/mL. Besides, the CC50 in data set [16] was 30 µg/mL (≈ 108 µM); in [17] it was over 100 µg/mL; in [18], over 100 µg/mL.

These data come from patent US6534520B2, “Antiviral compounds” (priority 1997, dated 2003).
